Drawing on patent US7932270B2 (Cytokinetics, Inc., priority 2006, dated 2011), this text covers IC50 for 31 compounds.

This assay deals with T1, chicken gizzard smooth muscle myosin subfragment-1 chemically crosslinked to cardiac or skeletal actin (Gallus gallus, UniProt P10587).
T1 construct: chicken gizzard smooth muscle myosin subfragment-1; from tissue; host or cells: chicken gizzard
T1 sequence (P02607 2-151): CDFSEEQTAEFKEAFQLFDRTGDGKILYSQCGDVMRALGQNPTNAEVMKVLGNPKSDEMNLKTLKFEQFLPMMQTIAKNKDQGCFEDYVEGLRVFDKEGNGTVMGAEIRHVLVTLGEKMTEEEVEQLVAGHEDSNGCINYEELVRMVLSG
T1 sequence (P10587 84-789): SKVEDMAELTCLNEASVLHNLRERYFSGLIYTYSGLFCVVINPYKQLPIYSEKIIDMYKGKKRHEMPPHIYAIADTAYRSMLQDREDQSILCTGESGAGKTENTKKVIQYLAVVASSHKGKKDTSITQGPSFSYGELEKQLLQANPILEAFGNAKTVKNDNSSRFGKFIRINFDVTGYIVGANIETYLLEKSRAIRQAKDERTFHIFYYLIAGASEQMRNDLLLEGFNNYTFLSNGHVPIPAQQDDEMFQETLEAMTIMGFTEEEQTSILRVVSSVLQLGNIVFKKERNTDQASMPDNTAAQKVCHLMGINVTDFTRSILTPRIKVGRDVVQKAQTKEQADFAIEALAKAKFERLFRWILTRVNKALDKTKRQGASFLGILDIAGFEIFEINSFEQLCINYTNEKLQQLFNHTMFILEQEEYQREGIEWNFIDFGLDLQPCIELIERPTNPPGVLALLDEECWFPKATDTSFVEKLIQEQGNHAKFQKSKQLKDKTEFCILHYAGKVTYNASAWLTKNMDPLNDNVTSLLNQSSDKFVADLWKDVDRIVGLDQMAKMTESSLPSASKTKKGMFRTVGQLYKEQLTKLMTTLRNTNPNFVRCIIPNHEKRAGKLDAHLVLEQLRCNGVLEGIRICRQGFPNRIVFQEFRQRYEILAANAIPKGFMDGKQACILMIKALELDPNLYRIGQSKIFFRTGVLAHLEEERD
Description: Smooth muscle myosin ATPase dose response assay (pyruvate kinase/horseradish peroxidase/pyruvate oxidase-coupled, amplex red fluorescence). It is filed as biochemical. As to conditions: read-out: IC50 Arithmetic Mean. The method, boiled down: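 Lead-optimization format: ATPase coupled via pyruvate kinase, pyruvate oxidase and peroxidase, pH 7.00 at 22° C, with 0.15 mM ATP, 100 mM KCl, 2 mM MgCl2, 2 mM phosphate and 0.1 mM amplex red (final). Crosslinked S1 titrated empirically for set hydrolysis rate; fluorescence (ex 480/em 615 nm) dose curves fit 4-parameter for IC50.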
For the compound `N#Cc1ccccc1-c1ccc(C(=O)NCc2cnccc2CN)c(NCCc2cccc(F)c2)n1` [N-{[4-(aminomethyl)(3-pyridyl)]methyl}(6-(2-cyanophenyl)-2-{[2-(3-fluorophenyl)ethyl]amino}(3-pyridyl))carboxamide], the half-maximal inhibitory concentration (IC50) (commonly the midpoint of a concentration-inhibition curve) came out at 401 nM.

For `N#Cc1ccccc1-c1ccc(C(=O)NCc2ccc(CN)cc2)c(NCCc2cccc(F)c2)n1` [N-{[4-(aminomethyl)phenyl]methyl}(6-(2-cyanophenyl)-2-{[2-(3-fluorophenyl)ethyl]amino}(3-pyridyl))carboxamide], the IC50 was determined as 277 nM.

As to `NCc1ccc(CNC(=O)c2ccc(-c3ccccc3)nc2NCCc2cccc(F)c2)nc1` [N-{[5-(aminomethyl)(2-pyridyl)]methyl}(2-{[2-(3-fluorophenyl)ethyl]amino}-6-phenyl(3-pyridyl))carboxamide], the IC50 amounted to 1060 nM.

With `N#Cc1ccccc1-c1ccc(C(=O)NCc2ccc(CN)cn2)c(NCCc2cccc(F)c2)n1` [N-{[5-(aminomethyl)(2-pyridyl)]methyl}(6-(2-cyanophenyl)-2-{[2-(3-fluorophenyl)ethyl]amino}(3-pyridyl))carboxamide], the IC50 was 515 nM.

Consider `N#Cc1ccccc1-c1ccc(C(=O)NCc2cncc(CN)c2)c(NCCc2cccc(F)c2)n1` [N-{[5-(aminomethyl)(3-pyridyl)]methyl}(6-(2-cyanophenyl)-2-{[2-(3-fluorophenyl)ethyl]amino}(3-pyridyl))carboxamide], for which the half-maximal inhibitory concentration (IC50) was found to be 323 nM.

Regarding `NCCc1cccc(CNC(=O)c2ccc(-c3ccccc3)nc2NCCc2cccc(F)c2)n1` [N-{[6-(2-aminoethyl)(2-pyridyl)]methyl}(2-{[2-(3-fluorophenyl)ethyl]amino}-6-phenyl(3-pyridyl))carboxamide], the 50% inhibitory concentration (IC50) is 24 nM.

As for `N#Cc1ccccc1-c1ccc(C(=O)NCc2cccc(CCN)n2)c(NCCc2cccc(F)c2)n1` [N-{[6-(2-aminoethyl)(2-pyridyl)]methyl}(6-(2-cyanophenyl)-2-{[2-(3-fluorophenyl)ethyl]amino}(3-pyridyl))carboxamide], the half-inhibitory concentration (IC50) was 11 nM.

Take `CC(=O)N1CCN(c2ccc(CNC(=O)c3ccc(-c4ccccc4C#N)nc3NCCc3cccc(F)c3)cn2)CC1` [N-{[6-(4-acetylpiperazinyl)(3-pyridyl)]methyl}(6-(2-cyanophenyl)-2-{[2-(3-fluorophenyl)ethyl]amino}(3-pyridyl))carboxamide]: the IC50 was 7750 nM.

As for `Cn1cc(-c2ccc(C(=O)NCc3cccc(CN)n3)c(NCCc3cccc(F)c3)n2)cn1` [N-{[6-(aminomethyl)(2-pyridyl)]methyl}(2-{[2-(3-fluorophenyl)ethyl]amino}-6-(1-methylpyrazol-4-yl)(3-pyridyl))carboxamide], the IC50 worked out at 136 nM.

Regarding `NCc1cccc(CNC(=O)c2ccc(-c3ccccc3)nc2NCCc2cccc(F)c2)n1` [N-{[6-(aminomethyl)(2-pyridyl)]methyl}(2-{[2-(3-fluorophenyl)ethyl]amino}-6-phenyl(3-pyridyl))carboxamide], the half-inhibitory concentration (IC50) was determined as 19 nM.

Regarding `NCc1cccc(CNC(=O)c2ccc(-c3cn[nH]c3)nc2NCCc2cccc(F)c2)n1` [N-{[6-(aminomethyl)(2-pyridyl)]methyl}(2-{[2-(3-fluorophenyl)ethyl]amino}-6-pyrazol-4-yl(3-pyridyl))carboxamide], the concentration for half-maximal inhibition (IC50) was 121 nM.

Regarding `Cn1cc(-c2nc(NCCc3cccc(F)c3)c(C(=O)NCc3cccc(CN)n3)cc2Br)cn1` [N-{[6-(aminomethyl)(2-pyridyl)]methyl}(5-bromo-2-{[2-(3-fluorophenyl)ethyl]amino}-6-(1-methylpyrazol-4-yl)(3-pyridyl))carboxamide], the IC50 stood at 27 nM.

Take `NCc1cccc(CNC(=O)c2cc(Br)c(-c3ccccc3)nc2NCCc2cccc(F)c2)n1` [N-{[6-(aminomethyl)(2-pyridyl)]methyl}(5-bromo-2-{[2-(3-fluorophenyl)ethyl]amino}-6-phenyl(3-pyridyl))carboxamide]: the IC50 turned out to be 604 nM.

For `N#Cc1ccccc1-c1ccc(C(=O)NCc2cccc(CN)n2)c(NCCc2cccc(F)c2)n1` [N-{[6-(aminomethyl)(2-pyridyl)]methy}(6-(2-cyanophenyl)-2-{[2-(3-fluorophenyl)ethyl]amino}(3-pyridyl))carboxamide], the half-inhibitory concentration (IC50) worked out at 9 nM.

On to `NCc1ccc(CNC(=O)c2ccc(-c3ccccc3)nc2NCCc2cccc(F)c2)cn1` [N-{[6-(aminomethyl)(3-pyridyl)]methyl}(2-{[2-(3-fluorophenyl)ethyl]amino}-6-phenyl(3-pyridyl))carboxamide], for which the IC50 was found to be 420 nM.

Consider `CN(C)c1ccc(CNC(=O)c2ccc(-c3ccccc3C#N)nc2NCCc2cccc(F)c2)cn1` [N-{[6-(dimethylamino)(3-pyridyl)]methyl}(6-(2-cyanophenyl)-2-{[2-(3-fluorophenyl)ethyl]amino}(3-pyridyl))carboxamide], for which the concentration for half-maximal inhibition (IC50) was 30200 nM.

For `N#Cc1ccccc1-c1ccc(C(=O)NC[C@H]2CCN2C(=O)C(O)CO)c(NCCc2cccc(F)c2)n1` (stereo partly drawn) [N-{[(2R)-1-(2,3-dihydroxypropanoyl)azetidin-2-yl]methyl}(6-(2-cyanophenyl)-2-{[2-(3-fluorophenyl)ethyl]amino}(3-pyridyl))carboxamide], the concentration for half-maximal inhibition (IC50) came out at 51 nM.

As to `Cn1cc(-c2nc(NCCc3cccc(F)c3)c(C(=O)NC[C@H]3CCCN3C(=O)C(O)CO)cc2F)cn1` (stereo partly drawn) [N-{[(2R)-1-(2,3-dihydroxypropanoyl)pyrrolidin-2-yl]methyl}(5-fluoro-2-{[2-(3-fluorophenyl)ethyl]amino}-6-(1-methylpyrazol-4-yl)(3-pyridyl))carboxamide], the IC50 worked out at 143 nM.

Regarding `N#Cc1ccccc1-c1nc(NCCc2cccc(F)c2)c(C(=O)NC[C@H]2CCCN2C(=O)C(O)CO)cc1F` (stereo partly drawn) [N-{[(2R)-1-(2,3-dihydroxypropanoyl)pyrrolidin-2-yl]methyl}(6-(2-cyanophenyl)-5-fluoro-2-{[2-(3-fluorophenyl)ethyl]amino}(3-pyridyl))carboxamide], the IC50 was 110 nM.

As for `N#Cc1ccccc1-c1ccc(C(=O)NC[C@H]2CCCCN2C(=O)CN)c(NCCc2cccc(F)c2)n1` [N-{[(2R)-1-(2-aminoacetyl)(2-piperidyl)]methyl}(6-(2-cyanophenyl)-2-{[2-(3-fluorophenyl)ethyl]amino}(3-pyridyl))carboxamide], the half-inhibitory concentration (IC50) amounted to 92 nM.

For `NCC(=O)N1CC[C@@H]1CNC(=O)c1ccc(-c2cn[nH]c2)nc1NCCc1cccc(F)c1` [N-{[(2R)-1-(2-aminoacetyl)azetidin-2-yl]methyl}(2-{[2-(3-fluorophenyl)ethyl]amino}-6-pyrazol-4-yl(3-pyridyl))carboxamide], the IC50 stood at 562 nM.

On to `Cn1cc(-c2nc(NCCc3cccc(F)c3)c(C(=O)NC[C@H]3CCN3C(=O)CN)cc2F)cn1` [N-{[(2R)-1-(2-aminoacetyl)azetidin-2-yl]methyl}(5-fluoro-2-{[2-(3-fluorophenyl)ethyl]amino}-6-(1-methylpyrazol-4-yl)(3-pyridyl))carboxamide], for which the IC50 was determined as 50 nM.

For the compound `N#Cc1ccccc1-c1ccc(C(=O)NC[C@H]2CCN2C(=O)CN)c(NCCc2cccc(F)c2)n1` [N-{[(2R)-1-(2-aminoacetyl)azetidin-2-yl]methyl}(6-(2-cyanophenyl)-2-{[2-(3-fluorophenyl)ethyl]amino}(3-pyridyl))carboxamide], the IC50 is 44 nM.

As to `N#Cc1ccccc1-c1ccc(C(=O)NC[C@H]2CNCCN2C(=O)CN)c(NCCc2cccc(F)c2)n1` [N-{[(2R)-1-(2-aminoacetyl)piperazin-2-yl]methyl}(6-(2-cyanophenyl)-2-{[2-(3-fluorophenyl)ethyl]amino}(3-pyridyl))carboxamide], the 50% inhibitory concentration (IC50) came out at 2780 nM.

Take `Cn1cc(-c2ccc(C(=O)NC[C@H]3CCCN3C(=O)CN)c(NCCc3cccc(F)c3)n2)cn1` [N-{[(2R)-1-(2-aminoacetyl)pyrrolidin-2-yl]methyl}(2-{[2-(3-fluorophenyl)ethyl]amino}-6-(1-methylpyrazol-4-yl)(3-pyridyl))carboxamide]: the IC50 stood at 581 nM.

`Cn1cc(-c2nc(NCCc3cccc(F)c3)c(C(=O)NC[C@H]3CCCN3C(=O)CN)cc2F)cn1` [N-{[(2R)-1-(2-aminoacetyl)pyrrolidin-2-yl]methyl}(5-fluoro-2-{[2-(3-fluorophenyl)ethyl]amino}-6-(1-methylpyrazol-4-yl)(3-pyridyl))carboxamide]: the IC50 is 66 nM.

Consider `NCC(=O)N1CCC[C@@H]1CNC(=O)c1cc(F)c(-c2cc[nH]n2)nc1NCCc1cccc(F)c1` [N-{[(2R)-1-(2-aminoacetyl)pyrrolidin-2-yl]methyl}(5-fluoro-2-{[2-(3-fluorophenyl)ethyl]amino}-6-pyrazol-3-yl(3-pyridyl))carboxamide], for which the IC50 was found to be 108 nM.

Take `NCC(=O)N1CCC[C@@H]1CNC(=O)c1cc(F)c(-c2cn[nH]c2)nc1NCCc1cccc(F)c1` [N-{[(2R)-1-(2-aminoacetyl)pyrrolidin-2-yl]methyl}(5-fluoro-2-{[2-(3-fluorophenyl)ethyl]amino}-6-pyrazol-4-yl(3-pyridyl))carboxamide]: the half-maximal inhibitory concentration (IC50) turned out to be 61 nM.

Take `N#Cc1ccccc1-c1ccc(C(=O)NC[C@H]2CCCN2C(=O)CN)c(NCCc2cccc(F)c2)n1` [N-{[(2R)-1-(2-aminoacetyl)pyrrolidin-2-yl]methyl}(6-(2-cyanophenyl)-2-{[2-(3-fluorophenyl)ethyl]amino}(3-pyridyl))carboxamide]: the IC50 stood at 25 nM.

Take `N#Cc1ccccc1-c1nc(NCCc2cccc(F)c2)c(C(=O)NC[C@H]2CCCN2C(=O)CN)cc1F` [N-{[(2R)-1-(2-aminoacetyl)pyrrolidin-2-yl]methyl}(6-(2-cyanophenyl)-5-fluoro-2-{[2-(3-fluorophenyl)ethyl]amino}(3-pyridyl))carboxamide]: the IC50 worked out at 40 nM.

Regarding `N#Cc1ccccc1-c1ccc(C(=O)NC[C@H]2CCC(=O)N2CCN)c(NCCc2cccc(F)c2)n1` [N-{[(2R)-1-(2-aminoethyl)-5-oxopyrrolidin-2-yl]methyl}(6-(2-cyanophenyl)-2-{[2-(3-fluorophenyl)ethyl]amino}(3-pyridyl))carboxamide], the 50% inhibitory concentration (IC50) stood at 110 nM.
